Test results: ChEMBL document CHEMBL1201862, “PubChem BioAssay data set” (2004)
Activity calls are given as the source filed them.

What was measured:
Cytochrome P450 2C9 = Cytochrome P450 2C9 (Homo sapiens, UniProt P11712)
Cytochrome P450 1A2 = molecular target: T1, Cytochrome P450 1A2 (Homo sapiens, UniProt P05177);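 further: PubChem cytochrome P450 panel assay, CYP1A2 panel member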
T1 sequence (P05177 whole entry): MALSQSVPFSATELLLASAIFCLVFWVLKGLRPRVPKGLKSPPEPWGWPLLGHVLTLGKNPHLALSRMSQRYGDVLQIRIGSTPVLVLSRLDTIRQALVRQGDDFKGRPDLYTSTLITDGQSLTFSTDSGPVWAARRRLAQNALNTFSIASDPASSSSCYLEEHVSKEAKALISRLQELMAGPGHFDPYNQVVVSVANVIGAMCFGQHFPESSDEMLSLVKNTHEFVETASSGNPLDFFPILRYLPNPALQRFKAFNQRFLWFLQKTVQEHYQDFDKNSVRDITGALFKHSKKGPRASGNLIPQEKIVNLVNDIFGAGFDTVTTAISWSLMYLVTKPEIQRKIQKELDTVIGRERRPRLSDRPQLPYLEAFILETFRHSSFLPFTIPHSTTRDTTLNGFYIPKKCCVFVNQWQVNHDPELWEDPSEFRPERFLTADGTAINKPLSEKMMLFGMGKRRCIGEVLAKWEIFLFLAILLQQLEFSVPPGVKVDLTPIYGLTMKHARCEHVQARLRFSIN

[1] = molecular target: T2, Polyadenylate-binding protein 1 (Homo sapiens, UniProt P11940); assay: PABP1 MLLE–PAM2 interaction inhibitors, dose response, miRNA deadenylation inhibitor project, biochemical, fluorescence polarization, Cy5-PAM2 peptide, secondary (AID 602260); assay type: functional; details: read-out: IC50_Mean
T2 sequence (P11940 whole entry): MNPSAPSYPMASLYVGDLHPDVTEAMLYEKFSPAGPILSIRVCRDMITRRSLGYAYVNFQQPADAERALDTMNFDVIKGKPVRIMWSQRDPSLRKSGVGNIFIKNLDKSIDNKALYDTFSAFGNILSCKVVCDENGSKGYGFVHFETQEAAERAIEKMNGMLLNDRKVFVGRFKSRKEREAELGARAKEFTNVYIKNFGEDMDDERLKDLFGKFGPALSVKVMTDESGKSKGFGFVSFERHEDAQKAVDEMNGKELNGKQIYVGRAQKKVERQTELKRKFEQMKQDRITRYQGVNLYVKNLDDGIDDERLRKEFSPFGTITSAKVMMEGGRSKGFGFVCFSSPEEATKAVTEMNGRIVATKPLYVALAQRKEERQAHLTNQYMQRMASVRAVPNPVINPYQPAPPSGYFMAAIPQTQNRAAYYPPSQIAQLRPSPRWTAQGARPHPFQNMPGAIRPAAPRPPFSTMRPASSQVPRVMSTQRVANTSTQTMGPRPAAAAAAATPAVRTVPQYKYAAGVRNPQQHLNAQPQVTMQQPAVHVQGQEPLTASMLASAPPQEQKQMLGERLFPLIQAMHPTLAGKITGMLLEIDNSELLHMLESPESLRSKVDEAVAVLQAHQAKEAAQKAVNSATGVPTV

[2] = molecular target: T2, Polyadenylate-binding protein 1; assay: PABP1 MLLE–PAM2 binding inhibitor potency, dose response, biochemical, fluorescence polarization, FITC-PAM2 peptide (AID 602259); assay type: functional; details: read-out: IC50_Mean
Cytochrome P450 2C19 = Cytochrome P450 2C19 (Homo sapiens, UniProt P33261); assay: Cytochrome panel assay with activity outcomes. Panel member name: p450-cyp2c19 Compounds with AC50 equal or less than 10 uM are considered active; assay type: functional
Cytochrome P450 2C19, sequence (P33261 whole entry): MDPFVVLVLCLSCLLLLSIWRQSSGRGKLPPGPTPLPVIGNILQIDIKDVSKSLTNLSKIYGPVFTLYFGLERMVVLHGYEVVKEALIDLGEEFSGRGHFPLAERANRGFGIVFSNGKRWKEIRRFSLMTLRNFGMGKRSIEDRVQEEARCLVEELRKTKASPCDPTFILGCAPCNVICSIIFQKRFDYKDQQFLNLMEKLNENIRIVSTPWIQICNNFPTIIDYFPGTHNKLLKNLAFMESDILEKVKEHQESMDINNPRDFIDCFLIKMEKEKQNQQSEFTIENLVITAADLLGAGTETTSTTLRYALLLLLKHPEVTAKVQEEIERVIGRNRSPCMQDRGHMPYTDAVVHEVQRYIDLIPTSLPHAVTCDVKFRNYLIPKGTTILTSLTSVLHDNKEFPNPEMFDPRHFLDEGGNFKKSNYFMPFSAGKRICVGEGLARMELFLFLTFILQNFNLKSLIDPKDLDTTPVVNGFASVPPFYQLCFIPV

Cytochrome P450 3A4 = Cytochrome P450 3A4 (Homo sapiens, UniProt P08684);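 further: CYP3A4 tested as one member of a cytochrome P450 panel screen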
Cytochrome P450 3A4, sequence (P08684 whole entry): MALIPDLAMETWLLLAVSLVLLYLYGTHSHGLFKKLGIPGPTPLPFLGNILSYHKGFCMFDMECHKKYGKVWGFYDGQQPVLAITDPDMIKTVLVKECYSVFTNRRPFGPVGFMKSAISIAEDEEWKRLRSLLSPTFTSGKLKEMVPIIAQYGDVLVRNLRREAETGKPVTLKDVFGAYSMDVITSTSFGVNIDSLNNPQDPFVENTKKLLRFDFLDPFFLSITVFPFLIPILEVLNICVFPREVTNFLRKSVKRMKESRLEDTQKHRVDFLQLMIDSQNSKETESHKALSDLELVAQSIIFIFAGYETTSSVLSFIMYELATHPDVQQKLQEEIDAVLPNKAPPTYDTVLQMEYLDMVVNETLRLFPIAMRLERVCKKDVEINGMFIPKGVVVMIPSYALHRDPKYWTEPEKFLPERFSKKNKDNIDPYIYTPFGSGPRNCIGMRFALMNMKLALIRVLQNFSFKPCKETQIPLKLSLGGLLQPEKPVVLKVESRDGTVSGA

H4 = assay: Luminescence Cell-Based Dose Response HTS to Identify Activators of 5'UTR Stem-Loop Driven Prion Protein mRNA Translation in H4 Neuroglioblastoma Cells. [Related pubchem assays: 1829 (Project Summary), 1814 (Primary HTS)]; assay type: functional; details: Homo sapiens
[3] = Luminescence Cell-Based Dose Response HTS to Identify Activators of Luciferase Translation or Activity in H4 […] Cells. [Related pubchem assays: 1829 (Project Summary), 1814 (Primary HTS)]; assay type: functional
[4] = molecular target: T3, Corticotropin-releasing factor receptor 2/Corticotropin-releasing factor-binding protein (Homo sapiens, UniProt P24387+Q13324); assay: Dose Response confirmation of uHTS hits for small molecule antagonists of the CRF-binding protein and CRF-R2 receptor complex.; assay type: functional; details: read-out: IC50_Mean
T3 sequence (Q13324 whole entry): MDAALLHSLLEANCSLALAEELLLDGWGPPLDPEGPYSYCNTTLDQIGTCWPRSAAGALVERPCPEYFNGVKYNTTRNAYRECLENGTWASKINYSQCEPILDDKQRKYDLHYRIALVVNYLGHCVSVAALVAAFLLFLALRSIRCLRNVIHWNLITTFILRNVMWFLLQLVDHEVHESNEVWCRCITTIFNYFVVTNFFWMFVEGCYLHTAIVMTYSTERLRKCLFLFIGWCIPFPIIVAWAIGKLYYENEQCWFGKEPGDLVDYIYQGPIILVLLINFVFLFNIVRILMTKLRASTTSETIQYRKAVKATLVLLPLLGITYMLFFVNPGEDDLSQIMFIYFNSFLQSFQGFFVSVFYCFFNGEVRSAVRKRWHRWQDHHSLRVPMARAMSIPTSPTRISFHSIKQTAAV
T3 sequence (P24387 whole entry): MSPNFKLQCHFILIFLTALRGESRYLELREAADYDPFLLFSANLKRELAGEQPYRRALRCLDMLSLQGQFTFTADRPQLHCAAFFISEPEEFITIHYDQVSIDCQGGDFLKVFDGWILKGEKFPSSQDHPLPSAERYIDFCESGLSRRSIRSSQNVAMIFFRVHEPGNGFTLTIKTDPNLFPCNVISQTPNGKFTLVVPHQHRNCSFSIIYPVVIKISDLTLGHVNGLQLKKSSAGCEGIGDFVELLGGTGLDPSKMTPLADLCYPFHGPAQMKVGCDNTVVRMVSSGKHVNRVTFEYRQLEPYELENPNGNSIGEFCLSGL

[5] = molecular target: T3, Corticotropin-releasing factor receptor 2/Corticotropin-releasing factor-binding protein; assay: activators of CRF receptor 2 with binding protein – uHTS hits, confirmation (AID 602473); assay type: functional; details: read-out: EC50_Mean
[6] = Luminescence Cell-Based Dose Confirmation HTS to Identify Activators of 5'UTR Stem-Loop Driven Alpha-Synuclein mRNA Translation in H4 Neuroglioblastoma Cells. [Related pubchem assays: 1829 (Project Summary), 1814 (Primary HTS)]; assay type: functional
[7] = molecular target: T4, Heat shock factor protein 1 (Mus musculus, UniProt P38532); assay: HSF1 potentiators in luciferase reporter cells, confirmation, cell-based, NIH3T3, luminescence, dose retest (AID 435004); assay type: functional;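 further: stress induced by proteasome inhibitor MG132 added 30 min after compound; luciferase reporter driven by HSF1 response element in NIH3T3 cells; actives raise luminescence as potentiators of the MG132 stress response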
T4 sequence (P38532 whole entry): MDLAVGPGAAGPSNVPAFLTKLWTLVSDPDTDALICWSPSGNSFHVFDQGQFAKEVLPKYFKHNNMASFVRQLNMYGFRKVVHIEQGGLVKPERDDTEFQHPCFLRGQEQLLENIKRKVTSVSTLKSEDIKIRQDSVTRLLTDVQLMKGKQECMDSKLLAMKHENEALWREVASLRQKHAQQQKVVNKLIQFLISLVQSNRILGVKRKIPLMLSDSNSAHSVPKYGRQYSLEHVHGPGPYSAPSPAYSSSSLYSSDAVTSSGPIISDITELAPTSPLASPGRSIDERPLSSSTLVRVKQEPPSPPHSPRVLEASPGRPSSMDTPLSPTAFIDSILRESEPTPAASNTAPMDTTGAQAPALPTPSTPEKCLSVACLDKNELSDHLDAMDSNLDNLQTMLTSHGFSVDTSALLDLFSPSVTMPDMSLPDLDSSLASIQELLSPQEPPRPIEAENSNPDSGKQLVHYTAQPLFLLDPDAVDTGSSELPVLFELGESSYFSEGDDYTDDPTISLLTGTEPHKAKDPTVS

Cytochrome P450 2C9, sequence (P11712 whole entry): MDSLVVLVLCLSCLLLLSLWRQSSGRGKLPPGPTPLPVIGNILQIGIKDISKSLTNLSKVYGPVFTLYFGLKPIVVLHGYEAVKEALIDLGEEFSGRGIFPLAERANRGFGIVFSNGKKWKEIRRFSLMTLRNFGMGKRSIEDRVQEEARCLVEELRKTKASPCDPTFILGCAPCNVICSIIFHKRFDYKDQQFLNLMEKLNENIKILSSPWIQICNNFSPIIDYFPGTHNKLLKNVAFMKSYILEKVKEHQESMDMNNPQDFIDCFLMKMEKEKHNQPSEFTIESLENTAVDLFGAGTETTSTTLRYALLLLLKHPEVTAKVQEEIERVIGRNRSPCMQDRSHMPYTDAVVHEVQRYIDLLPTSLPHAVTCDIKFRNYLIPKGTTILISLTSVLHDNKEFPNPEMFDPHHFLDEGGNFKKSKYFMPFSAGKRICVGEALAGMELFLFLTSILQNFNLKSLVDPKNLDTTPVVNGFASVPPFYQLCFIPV

| SMILES | AC50 (Cytochrome P450 2C9) | AC50 (Cytochrome P450 1A2) | AC50 (Cytochrome P450 2C19; read-out: AC50) | AC50 (Cytochrome P450 3A4) | also measured |
| --- | --- | --- | --- | --- | --- |
| CC(C)c1cccc2nc3c(c([Si](C)(C)C(C)(C)C)c12)Cn1c-3cccc1=O | 39.8 µM (inconclusive) | 25.1 µM (inconclusive) |  |  |  |
| CCOc1ccccc1NC(=O)CSc1nnc(-c2cccnc2)o1 |  |  |  |  | IC50 [1]: > 66 µM (inactive); IC50 [2]: > 66 µM (inactive) |
| COc1c(F)c(F)c(-c2csc(N)n2)c(F)c1F |  |  |  |  | IC50 [1]: > 66 µM (inactive); IC50 [2]: > 66 µM (inactive) |
| COc1ccccc1CNc1cc(-c2cccc(C#N)c2)ncn1 |  |  | 6.31 µM (inconclusive) | 25.1 µM (inconclusive) |  |
| CCOc1ccc(C(=O)c2cccs2)cc1 |  |  |  |  | EC50 (H4): 11.4 µM (active); EC50 [3]: 13.5 µM (active); IC50 [4]: > 47.1 µM (inactive); EC50 [5]: > 53 µM (inactive); EC50 [6]: 55 µM (active) |
| O=C1CSC(=S)N1c1cccnc1 |  |  |  |  | IC50 [1]: > 66 µM (inactive); IC50 [2]: > 66 µM (inactive) |
| CCCN(CCC)CCCNC(=O)C[S+]([O-])Cc1nc(-c2ccc(OC)c(OC)c2)oc1C (stereo unspecified) | 39.8 µM (inconclusive) | 3.16 µM (inconclusive) |  | 7.94 µM (inconclusive) | EC50 [7]: > 260 µM (inactive) |
| O=C(c1ccc(Oc2ccc(C(F)(F)F)cn2)cc1)N1CCN(c2ccccc2)CC1 | 25.1 µM (inconclusive) |  |  | 14.1 µM (inconclusive) |  |
| N#CC1=C(N)N2C(=C(C#N)C13CCCCC3)SC1CCCCC12O (stereo unspecified) |  |  |  |  | EC50 [7]: > 260 µM (inactive) |
| Cc1ccc2nsnc2c1S(=O)(=O)N(CCO)Cc1cc2cc3c(cc2nc1O)OCCO3 |  |  |  |  | EC50 (H4): 10.4 µM (active); EC50 [3]: 8.99 µM (active); EC50 [6]: 14.2 µM (active) |
| COCCCNC(=O)C1CC(=O)N(Cc2ccc(OC)cc2)C1 (stereo unspecified) |  |  | 22.4 µM (inconclusive) | 20 µM (inconclusive) |  |
| CS(=O)(=O)N1CCCC(C(=O)N2CCc3ccccc3C2)C1 (stereo unspecified) |  | 25.1 µM (inconclusive) | 35.5 µM (inconclusive) | 17.8 µM (inconclusive) |  |
| O=P(Nc1c(Cl)cccc1Cl)(c1ccccc1)c1nc2c(s1)CCCC2 (stereo unspecified) | 17.8 µM (inconclusive) |  | 20 µM (inconclusive) |  |  |
| CCOc1ccc(N2C(=O)CN=C2Nc2ccccc2F)cc1 |  | 15.8 µM (inconclusive) | 25.1 µM (inconclusive) |  |  |
| COC(=O)C1CSC(C(=O)OC)N1C(=O)Nc1c(C)cccc1C (stereo unspecified) | 25.1 µM (inconclusive) |  |  |  |  |
| C=C1S/C(=N/c2ccccc2Cl)N(C(=O)c2sc3ccccc3c2Cl)C1(C)C |  |  |  |  | EC50 [7]: > 260 µM (inactive) |
| C/C(CC(=O)Nc1cc(C)cc(C)c1)=N\NC(=O)c1ccccn1 |  |  |  |  | EC50 (H4): 42.2 µM (active); EC50 [3]: > 120 µM (not active); EC50 [6]: > 120 µM (not active) |
| O=C(CSCc1cccc(Cl)c1)N/N=C/c1ccc(OCC(=O)N2CCCCC2)cc1 | 22.4 µM (inconclusive) | 20 µM (inconclusive) |  |  |  |
| O=[N+]([O-])c1cccc(/C(=N/N=C/c2ccccc2Br)C23CN4CN(CN(C4)C2)C3)c1 | 35.5 µM (inconclusive) | 22.4 µM (inconclusive) | 14.1 µM (inconclusive) | 31.6 µM (inconclusive) |  |
| CCc1cccc(CC)c1NC(=O)CN(CC(=O)O)CC(=O)O [ETIFENIN] |  |  |  |  | AC50 (Cytochrome P450 2C19): inconclusive |
